Assays:
[1] = molecular target: T1, Gal-1 (Homo sapiens, UniProt P09382); assay: Competition pull-down with lactose; assay type: binding; details: H14 library; lactose 10 mM; read-out: Surface mapping KD (apparent), competition
T1 construct: made in house; host or cells: E. coli BL21(DE3)
Procedure: Interactions between the H14 helical LSMs and the targets were abundant, but safe recognition of the native PPI interfaces on the targets is a criterion of druggability. To gain insight into the ability of the LSMs to detect orthosteric spots, we carried out pull-down assays in the presence of the native ligands (Table 2) of the targets (Fig. 5). For highlighting the effect of the competitor on the binding fingerprints, KD ratios and the LSM replacement percentages were calculated and are represented as heat maps (see ESI, Fig. S7 ^†). […] This could be explained by the glycan selective native recognition domain of the protein. We note that the replacement pattern for a single probe can, in theory, be complex. […] Moreover, a single probe can bind to both orthosteric and non-orthosteric spots, which limits overall displacement levels. To avoid overlooking interesting orthosteric weak binders, direct replacement levels were assessed (see ESI, Fig. S7 ^†).
Pull-down assay and data analysis
Pull-down assay. LSM sublibraries were screened separately as previously described.(2) Experiments were performed in the following buffers: (i) 20 mM pH 7.4 HEPES, 150 mM NaCl, 5 mM CaCl2 for CaM; (ii) 50 mM pH 7.4 HEPES, 150 mM NaCl, 1 mM TCEP, 1 mM CaCl2 for S100 proteins; (iii) 20 mM pH 7.4 HEPES, 150 mM NaCl, 1 mM TCEP for Gal-1 and (iv) 20 mM pH 7.4 HEPES, 150 mM NaCl for RecQ-WH. Assays were performed in paper filter spin cups (Thermo Scientific) with sample volumes of 100 µl. Hexahistidine-tagged proteins were immobilized on previously washed Co-NTA resin (TALON, Takara Bio USA, Inc., Mountain View, CA) in 64 µM final concentration. LSM sublibrary was added, in which each of the 64 library members were used at a concentration of 1 µM. Samples were incubated at room temperature for 30 min with shaking at 100 rpm. Then, samples were centrifuged at 1000 rpm for 2 min and washed with 100 µl pull-down buffer to remove unbound compounds.
The control experiments were performed using the same compounds and the resin but without the immobilized protein. In case of competitive assays, competitor peptides were added to LSM sublibrary samples in 200 µM final concentration. In the case of Gal-1, lactose (competitor) was used in a concentration of 10 mM. Experiments were performed at least twice. Mean […]
LC-MS methods and parameters. HPLC/ESI-MS analysis was used to characterize the samples from the pull-down assay. LC-MS analysis was performed with a Thermo Scientific Dionex UltiMate 3000 HPLC system interfaced to an LTQ ion trap mass spectrometer (Thermo Electron Corp., San Jose, CA, USA). Samples were injected onto an Aeris Widepore XB-C18 (250 x 4.6 mm) analytical HPLC column using gradient elution 5-80 % solution B during 25 minutes. For pull-down samples, eluent composition was 0.1% acetic acid in distilled water (Solution A) and 0.1% acetic acid in acetonitrile (solution B). Mass spectra were acquired in full scan mode from 200 to 2000 m/z range. For overlapping peaks, selective reaction monitoring (SRM) was […]
MS data analysis. Thermo Xcalibur 2.2 software was used for peak identification and integration. The majority of the foldameric fragments could be resolved independently via HPLC-MS/MS measurements based on molecular weight, MS fragmentation pattern and retention time. Peaks of some foldamers with β3-hIle or β3-hLeu in position R2 could not be resolved, these were integrated and averaged. In the processing method, each sample component was associated to a chromatographic peak based on previously identified mass (m/z) and retention time (ref (2) and Table S7-10). Using ICIS peak detection algorithm, the general detection and integration criteria were: smoothing points: 5, baseline window: 80, area noise factor: 5, peak noise factor: 10. Using these processing setups, all raw data files were reprocessed together and analyzed. Errors in peak identification during the automatic processing were corrected manually.
Calculation of the discussed parameters […]

[2] = molecular target: T2, CaM (Bos taurus, UniProt P62157); assay: Pull-down assay with immobilized protein and LSM libraries; assay type: binding, bovine; details: H14 library; 1:2 stoichiometry assumed; read-out: Surface mapping KD (apparent)
T2 construct: made in house; host or cells: E. coli BL21 (DE3)
Summary of the method: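 His-tagged protein immobilized on Co-NTA resin, equilibrated 30 min at room temperature with LSM sublibraries (64 members, […]), equimolar protein to total probe. CaM buffer: 20 mM HEPES pH 7.4, 150 mM NaCl, 5 mM CaCl2. Bound fractions from HPLC-MS loss of unbound probe versus protein-free resin control; Kd derived.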

[3] = molecular target: T1, Gal-1; assay: as above; assay type: binding; details: H14 library; 1:1 binding assumed; read-out: Surface mapping KD (apparent)
Summary of the method: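 His-tagged protein immobilized on Co-NTA resin (64 µM) in 20 mM HEPES pH 7.4, 150 mM NaCl, equilibrated 30 min at room temperature with foldamer LSM sublibraries at equimolar total concentration. Unbound fractions quantified by HPLC-MS versus protein-free resin control; apparent KD assumes 1:1 binding.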

[4] = molecular target: T2, CaM; assay: Competition pull-down with native ligand TRPV1-Ct15; assay type: binding, bovine; details: H14 library; competitor peptide 200 µM; read-out: Surface mapping KD (apparent), competition
[5] = molecular target: T3, S100B (Homo sapiens, UniProt P04271); assay: Pull-down assay with immobilized protein and LSM libraries; assay type: binding
T3 construct: made in house; host or cells: Escherichia coli BL21(DE3)
T3 sequence (P04271 1-92): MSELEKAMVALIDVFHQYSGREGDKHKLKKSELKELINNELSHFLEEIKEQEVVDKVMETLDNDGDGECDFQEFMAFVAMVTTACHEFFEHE
Summary of the method: (§1)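 Buffers were HEPES pH 7.4 with 150 mM NaCl, plus 1 mM TCEP and 1 mM CaCl2 (50 mM HEPES) for S100A4 and S100B, 1 mM TCEP for Gal-1, and no additive for RecQ-WH. Immobilized protein at 64 µM was equilibrated 30 min with the LSM sublibrary, and unbound probes were measured by LC-MS.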

[6] = molecular target: T4, S100A4 (Homo sapiens, UniProt P26447); assay: as above; assay type: binding; details: for Kd: H14 library, 1:1 binding assumed, read-out: Surface mapping KD (apparent)
T4 construct: made in house; host or cells: Escherichia coli BL21(DE3)
T4 sequence (P26447 whole entry): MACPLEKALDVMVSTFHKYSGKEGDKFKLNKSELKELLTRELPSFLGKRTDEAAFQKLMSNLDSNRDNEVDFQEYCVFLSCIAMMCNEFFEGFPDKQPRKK
Summary of the method: as §1

[7] = H14 probes selected for validation

T1 sequence (P09382 whole entry): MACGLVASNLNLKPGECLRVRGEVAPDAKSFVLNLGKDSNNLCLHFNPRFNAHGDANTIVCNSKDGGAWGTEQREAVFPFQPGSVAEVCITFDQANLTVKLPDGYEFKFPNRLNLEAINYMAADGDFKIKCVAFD

Row | SMILES | Kd [1] [µM] | Kd [2] [µM] | Kd [3] [µM] | Kd [4] [µM] | Binding ([5]; H14 probes) | Affinity class of probe (high, medium, low) in pull-down [5, 7] | Kd [6] [µM] | Binding ([6]; H14 probes) | Affinity class of probe (high, medium, low) in pull-down [6, 7] | Kd ([5]; H14 library, 1:1 binding assumed, read-out: Surface mapping KD (apparent)) [µM]
1 | NC(=O)CC[C@@H](CC(=O)N[C@H]1CCCC[C@@H]1C(=O)N[C@H]1CCCC[C@@H]1C(=O)N[C@@H](CCC(=O)O)CC(=O)N[C@H]1CCCC[C@@H]1C(N)=O)NC(=O)[C@H]1CCCC[C@@H]1N [H14 QE] | 380 | 221 | 295 | 246 |  |  |  |  |  | 
2 | NC(=O)CC[C@@H](CC(=O)N[C@H]1CCCC[C@@H]1C(N)=O)NC(=O)[C@H]1CCCC[C@@H]1NC(=O)[C@H]1CCCC[C@@H]1NC(=O)C[C@H](CCC(N)=O)NC(=O)[C@H]1CCCC[C@@H]1N [H14 QQ] | 467 | 186 | 273 | 295 |  |  |  |  |  | 
3 | NC(=O)CC[C@@H](CC(=O)N[C@H]1CCCC[C@@H]1C(=O)N[C@H]1CCCC[C@@H]1C(=O)N[C@@H](CO)CC(=O)N[C@H]1CCCC[C@@H]1C(N)=O)NC(=O)[C@H]1CCCC[C@@H]1N [H14 QS] | 500 | 187 | 350 | 336 |  |  |  |  |  | 
4 | CC(C)[C@@H](CC(=O)N[C@H]1CCCC[C@@H]1C(N)=O)NC(=O)[C@H]1CCCC[C@@H]1NC(=O)[C@H]1CCCC[C@@H]1NC(=O)C[C@H](CCC(N)=O)NC(=O)[C@H]1CCCC[C@@H]1N [H14 QV] | 372 | 94 | 349 | 229 |  |  |  |  |  | 
5 | C[C@@H](CC(=O)N[C@H]1CCCC[C@@H]1C(N)=O)NC(=O)[C@H]1CCCC[C@@H]1NC(=O)[C@H]1CCCC[C@@H]1NC(=O)C[C@H](CO)NC(=O)[C@H]1CCCC[C@@H]1N [H14 SA] | 432 | 384 | 389 | 362 |  |  |  |  |  | 
6 | NC(=O)[C@H]1CCCC[C@@H]1NC(=O)C[C@H](CCC(=O)O)NC(=O)[C@H]1CCCC[C@@H]1NC(=O)[C@H]1CCCC[C@@H]1NC(=O)C[C@H](CO)NC(=O)[C@H]1CCCC[C@@H]1N [H14 SE] | 415 | 236 | 326 | 232 |  |  |  |  |  | 
7 | NC(=O)C[C@@H](CC(=O)N[C@H]1CCCC[C@@H]1C(N)=O)NC(=O)[C@H]1CCCC[C@@H]1NC(=O)[C@H]1CCCC[C@@H]1NC(=O)C[C@H](CO)NC(=O)[C@H]1CCCC[C@@H]1N [H14 SN] | 427 | 184 | 310 | 279 |  |  |  |  |  | 
8 | C[C@@H](O)[C@@H](CC(=O)N[C@H]1CCCC[C@@H]1C(=O)N[C@H]1CCCC[C@@H]1C(=O)N[C@@H](CC(=O)O)CC(=O)N[C@H]1CCCC[C@@H]1C(N)=O)NC(=O)[C@H]1CCCC[C@@H]1N [H14 TD] | 415 | 314 | 326 | 232 |  |  |  |  |  | 
9 | CSCC[C@@H](CC(=O)N[C@H]1CCCC[C@@H]1C(N)=O)NC(=O)[C@H]1CCCC[C@@H]1NC(=O)[C@H]1CCCC[C@@H]1NC(=O)C[C@@H](NC(=O)[C@H]1CCCC[C@@H]1N)[C@@H](C)O [H14 TM] |  | 46 |  | 113 | does not | low | 13 | binds | high | 
10 | NC(=O)C[C@@H](CC(=O)N[C@H]1CCCC[C@@H]1C(N)=O)NC(=O)[C@H]1CCCC[C@@H]1NC(=O)[C@H]1CCCC[C@@H]1NC(=O)C[C@H](Cc1c[nH]c2ccccc12)NC(=O)[C@H]1CCCC[C@@H]1N [H14 WN] |  | 14 |  | 294 |  |  | 224 |  |  | 168

Reference: article PMC8162404, “Proteomimetic surface fragments distinguish targets by function” (Chemical Science, 2020)
